Test results: ChEMBL document CHEMBL1201862, “PubChem BioAssay data set” (2004)
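1) Cells in 96-well plates. 2) Compound, 48 h, 5 concentrations. 3) Linear interpolation between surrounding doses. 4) Unreached endpoint = highest concentration. GI50: concentration for 50% inhibition of growth.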 Activity calls are given as the source filed them. Rule as the data show it: active = GI50 up to about 1.1 µM and inactive = higher.

How the values were obtained:
Experiment in all cases: NCI-60 cell line screen, 48 h
[1] = tested on: 786-0
[2] = tested on: DLD-1
[3] = tested on: HCT-116
[4] = tested on: HL-60
[5] = tested on: HOP-92
[6] = tested on: K562
[7] = tested on: KM-20L2
[8] = tested on: KM12
[9] = tested on: LXFL 529
[10] = tested on: MOLT-4
[11] = tested on: Malme-3M
[12] = tested on: OVCAR-8
[13] = tested on: SK-MEL-2
[14] = tested on: SK-MEL-5
[15] = tested on: SK-OV-3
[16] = tested on: UACC-257
[17] = tested on: UACC-62
[18] = tested on: UO-31

Measured: GI50

CCOC(OC1=C(C#N)CCCC1)C(CC)[Se]c1ccccc1[N+](=O)[O-] (stereo not given)
inactive: [1] 17.8 µM | [2] 17.9 µM | [3] 19.4 µM | [4] 17.1 µM | [5] 18.4 µM | [6] 33.6 µM | [7] 17.2 µM | [8] 21.1 µM | [9] 26.5 µM | [10] 25.6 µM | [11] 22.8 µM | [12] 24 µM | [13] 21 µM | [14] 15.1 µM | [15] 63.8 µM | [16] > 100 µM | [17] 22 µM | [18] 26.8 µM

Cc1cc(O)nc(NNC(C#N)c2cccc(O)c2)n1 (stereo not given)
inactive: [1] > 100 µM | [2] > 100 µM | [3] > 100 µM | [4] > 100 µM | [5] > 100 µM | [6] > 100 µM | [7] > 100 µM | [8] > 100 µM | [9] > 100 µM | [10] > 100 µM | [11] 79.1 µM | [12] > 100 µM | [13] > 100 µM | [14] > 100 µM | [15] > 100 µM | [16] > 100 µM | [17] 75.7 µM | [18] > 100 µM

O=C(Nc1ccccc1)C(=O)C(C(=O)c1ccccc1F)C1OC(=O)c2ccccc21 (stereo not given)
inactive: [2] 41.9 µM | [3] 18.9 µM | [4] 24.4 µM | [5] > 100 µM | [6] 44.7 µM | [7] 33.6 µM | [8] 26.9 µM | [9] 23.6 µM | [10] 28.4 µM | [12] 19.5 µM | [13] 23.9 µM | [14] 71.8 µM | [15] 49 µM | [16] 66.5 µM | [17] 23.5 µM | [18] 47.3 µM

Cc1ccc2c(c1CCCC(C)(C)O)C(=O)C(O)=C(C(C)C)C2=O
inactive: [1] > 100 µM | [2] > 100 µM | [3] 60.5 µM | [4] 46.6 µM | [5] > 100 µM | [6] 48.1 µM | [7] > 100 µM | [8] > 100 µM | [9] 62.1 µM | [10] 60.1 µM | [11] > 100 µM | [12] 62.5 µM | [13] 36.7 µM | [14] > 100 µM | [15] > 100 µM | [18] 76 µM

COC(=O)C(Cc1nc2ccccc2nc1O)C(=O)C(=O)Nc1ccc(F)cc1 (stereo not given)
inactive: [1] 25.4 µM | [2] 32.9 µM | [3] 41.2 µM | [4] 45.5 µM | [5] 20.8 µM | [7] > 100 µM | [8] 41 µM | [9] 15.7 µM | [10] 58.6 µM | [11] 28.8 µM | [12] 20 µM | [13] 34.4 µM | [14] > 100 µM | [15] > 100 µM | [16] > 100 µM | [17] 24.2 µM | [18] > 100 µM

C[P+](C)(C)c1ccccc1
inactive: [1] > 100 µM | [2] > 100 µM | [3] > 100 µM | [4] > 100 µM | [5] > 100 µM | [6] > 100 µM | [7] > 100 µM | [8] > 100 µM | [9] > 100 µM | [10] > 100 µM | [11] > 100 µM | [12] > 100 µM | [13] > 100 µM | [14] > 100 µM | [15] > 100 µM | [16] > 100 µM | [17] > 100 µM | [18] > 100 µM

COc1ccc(/C(Cl)=C(\CN(C)C)c2ccc(OC)c(OC)c2)cc1OC.[B]
inactive: [1] 15.9 µM | [2] > 100 µM | [3] 38.8 µM | [4] > 100 µM | [5] 2.22 µM | [6] > 100 µM | [7] > 100 µM | [8] > 100 µM | [9] > 100 µM | [10] > 100 µM | [12] > 100 µM | [14] > 100 µM | [15] 14.2 µM | [16] > 100 µM | [17] 3.94 µM | [18] > 100 µM

C=C1C(=O)O[C@@H]2C[C@]3(C)[C@@H](C[C@H]12)[C@](C)(O)CC[C@@H]3O
inactive: [1] 39.4 µM | [2] 41 µM | [3] 36 µM | [5] 81.3 µM | [6] 33.4 µM | [7] 38.9 µM | [8] 37.8 µM | [9] 44 µM | [10] 57.1 µM | [11] 71.3 µM | [12] 36.6 µM | [13] 69.2 µM | [14] 91.8 µM | [15] > 100 µM | [17] 32.5 µM | [18] > 100 µM
